Measured values taken from PMC8910649, “An Efficient Way to Screen Inhibitors of Energy-Coupling Factor (ECF) Transporters in a Bacterial Uptake Assay” (International Journal of Molecular Sciences, 2022).
Values after ≈ are worked out from the molar mass of the structure shown. Like-named read-outs stand apart in the source and are kept apart here. Values belong to the compound of their own block, whether it stands above or below them.

Assays:
ECF FolT2 transporter = details: cited from earlier work
ECF FolT transporter = assay: Bacterial (whole-cell) folate uptake assay in L. casei; details: for Inhibition at 200 μM: folate import
Method: The OD600 was measured in a Nanodrop 2000c spectrophotometer (Thermo Fisher Scientific, Waltham, MA, USA) using half-micro cuvettes. The culture was diluted to OD600 = 0.06 in 25 mL and grown under the same conditions as before for 16 h. The new overnight culture was diluted to OD600 = 0.4 in 25 mL MRS medium and regrown in a 50 mL reaction tube for 2 h under the same conditions. The culture was subsequently centrifuged, washed with 50 mL PBS (50 mM, pH 7.4), centrifuged again, and resuspended in citrate buffer (20 mM, pH 6, 2% D-Glucose, 8 g/L NaCl, 0.2 g/L KCl) while adjusting the OD600 to 0.5. Then, 185 μL of this cell suspension was subsequently distributed on an opaque MultiScreen HTS Filter Plate-GV (Merck KGaA, Darmstadt, Germany). For each plate, two wells containing buffer for blank determination were included. A stock solution of compounds in DMSO (10 μL) was added to the wells and mixed (final DMSO conc. = 5%), followed by a preincubation at RT for 10 min. The solubility of the compounds in citrate buffer was verified in 96-well plates. Poorly soluble compounds were tested at the highest possible concentration. In addition, for each plate, four negative controls containing DMSO instead of inhibitor and a positive control were included. Tritium-labeled folic acid (Moravek Biochemicals, Brea, CA, USA) (5 μL, 2 μM, radioactivity was adjusted to 12.7 Ci/mmol using unlabeled folic acid) was added to the wells leading to a final concentration of 50 nM. The solutions were mixed (final volume 200 μL) as before, and the plate was incubated in a preheated incubator at 30 °C for 30 min. The plate was covered with sealing tape during the incubation steps to avoid evaporation. To stop the reaction, the liquid in the filter plates was removed from the cells by centrifugation (3 min at 1500× g). Subsequently, the cells were washed twice with PBS (10 mM, pH 7.2), followed by centrifugation steps (3 and 5 min at 1500× g). After removal of the underdrain, residual liquid on the bottom of the filters was removed using lint-free paper towels and the plate was dried at 50 °C in the incubator. After 10 min, 30 μL of liquid scintillating fluid was added into each well, the plate was covered with sealing tape and gently vortexed for 5 min. Relative radioactivity was determined for 1 min each well in a Wallac MicroBeta TriLux BetaCounter (Perkin Elmer, Waltham, MA, USA). […] Counts were averaged and after subtraction of the blank, the percentage of inhibition was determined by the following formula: Inh. %=100-x inhibitor/x negative control×100 The data were plotted including standard deviations. IC50 values were determined by plotting percentages of inhibition against the related concentrations and fitting the Origin standard function “Hill1” to the data. The KM was determined by plotting the relative radioactivity against the folic acid concentration and fitting the Origin standard function “Hyperbl” to the data.

[1] = test system: Streptococcus pneumoniae DSM-20566; assay: Antibacterial testing (MIC); assay type: cell-based; details: DSM20566; Streptococcus pneumoniae DSM-20566, auxotrophic
Method: (§1) Figure S12. Screening a broad library (4−22) against ECF FolT2 transporter in the L. casei bacterial assay. Compou nds colored i n blue s howed inhibiti on bi gger than 20% when tested at 500 µ M.
(§2) Compounds were prepared as DMSO stocks a nd minimum inhibitory concentrations (MIC) were determined as de-scribed elsewhere. Bacteria were handled according to standard procedures and w ere obtained from the Ger man Col-lection of M icroorganisms and Cell Cultures (DSMZ) or were part of our interna l strain collection. In brief, bacterial cultures were diluted in Tryptic Soy Broth (TSB; 1.7% pepto ne casein, 0.3% peptone soymeal, 0.25% glucose, 0.5% NaCl, 0.25% K2HPO4; pH 7.3) or Müller– Hinton br oth (0.2% beef infusion solids, 1.75% casein hydr olysate, 0.15% starch, pH 7.4) to achieve a final inoculum of approximately 10 4 to 105 cfu/mL. Compou nd s were tested in serial dilution (0.06– […]
(§3) Organisms FolT EcfT EcfA1 EcfA2 Figure S13:
(§4) Lactobacillus delbrueckii A0A061BSU4 Q1GBJ0 Q1GBI9 numbers of the […]
(§5) Lactobacillus casei transporter (FolT,

[2] = test system: Staphylococcus aureus str. Newman; assay: Antibacterial testing (MIC); assay type: cell-based; details: not auxotrophic
Method: as §1, §2, §3, §4, §5

[3] = test system: Streptococcus pneumoniae DSM-11865 (PRSP); assay: Antibacterial testing (MIC); assay type: cell-based; details: auxotrophic
Method: as §1, §2, §3, §4, §5

[4] = Solubility of the compounds in citrate buffer (assay conditions); assay type: physicochemical
Method: The data were analyzed by using OriginPro 2018G (OriginLab Corporation, Northampton, MA, USA).

SMILES: O=C(O)c1cc(OCc2cccc3ccccc23)ccc1O [Compound 1, reference compound]
IC50 (ECF FolT2 transporter; uptake into proteoliposomes, ECF FolT2 from L. delbrueckii): 282 ± 108 µM

SMILES: O=C(O)CNCc1ccc(-c2ccc(Cl)cc2)o1 [Compound 2]
inhibition of folic acid uptake: inactive up to (ECF FolT transporter; bacterial uptake assay L. casei): > 1.2 mM
IC50 (ECF FolT2 transporter; proteoliposome uptake (in vitro assay, L. delbrueckii)): > 1200 µM

MIC [1]: 21 µg/mL (≈ 64.1 µM)
MIC [2]: 23 µg/mL (≈ 70.2 µM)
MIC [3]: 10 µg/mL (≈ 30.5 µM)
IC50 (ECF FolT transporter; bacterial uptake assay, L. casei, 50 nM radiolabeled folic acid): 204 ± 22 µM
SMILES: O=C(O)c1cccc(NCc2ccc(-c3ccc(Cl)cc3)o2)c1 [Compound 3]
Inhibition at 200 μM (ECF FolT transporter; L. casei based uptake assay): 43% (IC50 = 204 ± 22 μM)

solubility under the conditions of the assay [4]: insoluble
solubility ([4]; citrate buffer with 5% DMSO, 96-well plates, pH 6, aqueous with cosolvent or surfactant or cyclodextrin, kinetic from dmso stock, citrate buffer, read-out: solubility limit (not soluble above)): ≤ 50 µM
SMILES: O=C(O)c1ccccc1NCc1ccc(-c2ccc(Cl)cc2)o1 [Compound 23]
Inhibition at 50 µM (ECF FolT transporter; 50 µM (not soluble above 50 μM), L. casei based uptake assay): 11% at 50 µM

SMILES: O=C(O)c1ccc(NCc2ccc(-c3ccc(Cl)cc3)o2)cc1 [Compound 24]
Inhibition at 500 μM (ECF FolT transporter; 500 μM, L. casei based uptake assay): n.i at 500 μM (n.i. = no inhibition (if inhibition < 10%))
inhibition (ECF FolT transporter; up to 500 μM, L. casei uptake assay): no inhibition

SMILES: O=C(O)c1cccc(NCc2ccc(-c3cccc(Cl)c3)o2)c1 [Compound 25]
Inhibition at 200 μM (ECF FolT transporter; L. casei based uptake assay): 41%

SMILES: O=C(O)c1cccc(NCc2ccc(-c3ccccc3Cl)o2)c1 [Compound 26]
Inhibition at 200 μM (ECF FolT transporter; L. casei based uptake assay): 36%

SMILES: O=C(O)c1cccc(NCc2cc(-c3ccc(Cl)cc3)co2)c1 [Compound 27]
Inhibition at 200 μM (ECF FolT transporter; L. casei based uptake assay): 8%

SMILES: Nc1nc(=O)c2nc(CNc3ccc(C(=O)N[C@@H](CCC(=O)O)C(=O)O)cc3)cnc2[nH]1 [folic acid]
Km (ECF FolT transporter; read-out: KM of folate uptake, substrate-dependent folate uptake in L. casei, PBS (50 mM, pH 7.4, 2% Glucose)): 0.049 µM
Vmax of folate uptake (ECF FolT transporter; substrate-dependent folate uptake in L. casei, PBS (50 mM, pH 7.4, 2% Glucose)): 83 (±2) counts per minute (cpm)
